Data reported in ChEMBL document CHEMBL1155853, “N-(thiazol-2-yl)-2-thiophene carboxamide derivatives as Abl inhibitors identified by a pharmacophore-based database screening of commercially available compounds” (Bioorg Med Chem Lett, 2008).

Molecular target: Tyrosine-protein kinase ABL1 (Homo sapiens, UniProt P00519)
Experiment: Inhibition of Abl kinase by cell free assay

Chain of Tyrosine-protein kinase ABL1 (P00519 whole entry): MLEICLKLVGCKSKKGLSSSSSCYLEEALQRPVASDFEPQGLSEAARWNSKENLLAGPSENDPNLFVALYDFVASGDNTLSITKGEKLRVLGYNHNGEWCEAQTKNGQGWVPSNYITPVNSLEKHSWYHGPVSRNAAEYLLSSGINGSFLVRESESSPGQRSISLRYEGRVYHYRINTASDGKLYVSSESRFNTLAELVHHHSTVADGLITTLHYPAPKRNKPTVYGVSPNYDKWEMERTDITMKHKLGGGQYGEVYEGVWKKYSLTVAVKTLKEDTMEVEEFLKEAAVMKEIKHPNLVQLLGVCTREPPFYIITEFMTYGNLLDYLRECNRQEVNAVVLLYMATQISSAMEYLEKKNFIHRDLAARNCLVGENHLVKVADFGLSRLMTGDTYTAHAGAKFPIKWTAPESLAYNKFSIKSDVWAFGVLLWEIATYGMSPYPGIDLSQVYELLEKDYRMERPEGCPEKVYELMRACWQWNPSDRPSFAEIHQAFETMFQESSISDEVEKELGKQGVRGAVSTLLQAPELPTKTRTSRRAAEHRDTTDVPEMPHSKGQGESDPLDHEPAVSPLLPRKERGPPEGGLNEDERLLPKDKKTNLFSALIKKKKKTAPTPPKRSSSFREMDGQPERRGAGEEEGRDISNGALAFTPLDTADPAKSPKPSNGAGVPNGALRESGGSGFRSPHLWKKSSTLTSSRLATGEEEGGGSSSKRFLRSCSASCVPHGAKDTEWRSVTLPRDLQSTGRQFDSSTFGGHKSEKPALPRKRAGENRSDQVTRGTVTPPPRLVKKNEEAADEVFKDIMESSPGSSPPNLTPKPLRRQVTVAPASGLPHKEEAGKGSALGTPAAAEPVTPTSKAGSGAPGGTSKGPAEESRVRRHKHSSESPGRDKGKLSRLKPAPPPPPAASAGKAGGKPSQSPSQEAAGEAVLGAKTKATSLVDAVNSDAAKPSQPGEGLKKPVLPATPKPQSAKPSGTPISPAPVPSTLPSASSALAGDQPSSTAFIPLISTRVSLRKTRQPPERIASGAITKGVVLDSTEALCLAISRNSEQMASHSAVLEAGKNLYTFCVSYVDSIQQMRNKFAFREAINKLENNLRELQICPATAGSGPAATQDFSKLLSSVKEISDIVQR

| SMILES | Ki |
| --- | --- |
| O=C(Nc1ncc(Cc2cc(C(F)(F)F)ccc2Cl)s1)c1cccs1 | 845 nM |
| O=C(Nc1ncc(Cc2ccc(Cl)cc2Cl)s1)c1cccs1 | 3470 nM |
| O=C(Nc1ncc(-c2ccc(Cl)cc2)s1)c1cccs1 | 791 nM |
| O=C(Nc1nnc(Cc2ccccc2)s1)c1cccs1 | 360 nM |
| O=C(Nc1ncc(Cc2ccccc2Cl)s1)c1cccs1 | 245 nM |
| COc1ccc2c(c1)Cc1sc(NC(=O)c3cccs3)nc1-2 | 68 nM |
| O=C(Nc1nnc(COc2ccccc2)s1)c1cccs1 | 278 nM |
| O=C(Nc1ncc(Cc2ccc(Cl)cc2)s1)c1cccs1 | 624 nM |
| Cc1ccc(Cc2cnc(NC(=O)c3cccs3)s2)cc1 | 249 nM |
| O=C(Nc1ncc(Cc2ccccc2F)s1)c1cccs1 | 170 nM |
| O=C(Nc1ncc(-c2ccc(F)cc2)s1)c1cccs1 | 1650 nM |
| COc1ccc(Cc2cnc(NC(=O)c3cccs3)s2)cc1 | 16 nM |

Further lines, results first:

| Ki | SMILES |
| --- | --- |
| 130 nM | O=C(Nc1ncc(Cc2ccc(F)cc2)s1)c1cccs1 |
| 136 nM | O=C(Nc1ncc(Cc2cccc(C(F)(F)F)c2)s1)c1cccs1 |
| 50 nM | O=C(Nc1ncc(Cc2cc(Cl)ccc2Cl)s1)c1cccs1 |
| 59 nM | Cc1cccc(Cc2cnc(NC(=O)c3cccs3)s2)c1 |
| 97 nM | O=C(Nc1ncc(Cc2cccc(Cl)c2)s1)c1cccs1 |
| 90 nM | O=C(Nc1ncc(Cc2ccccc2)s1)c1cccs1 |
